Blank lines part the entries; values can stand above or below the compound they belong to.
Columns and labels:
Assay in all cases: Competitive isoTOP-ABPP in situ (fragment-treated cells)
Assay type in all cases: cell-based
[1] = target: cysteines in MDA-MB-231 and Ramos cells (Homo sapiens, UniProt Q9BRJ7)
[2] = target: cysteines in MDA-MB-231 and Ramos cells (Homo sapiens, UniProt Q9Y676)
[3] = target: T1, cysteines in MDA-MB-231 and Ramos cells (Homo sapiens, UniProt O43175); settings: 200 μM, insitu; for isoTOP-ABPP ratio, cysteine O43175_C369: ramos
T1 sequence (O43175 1-533): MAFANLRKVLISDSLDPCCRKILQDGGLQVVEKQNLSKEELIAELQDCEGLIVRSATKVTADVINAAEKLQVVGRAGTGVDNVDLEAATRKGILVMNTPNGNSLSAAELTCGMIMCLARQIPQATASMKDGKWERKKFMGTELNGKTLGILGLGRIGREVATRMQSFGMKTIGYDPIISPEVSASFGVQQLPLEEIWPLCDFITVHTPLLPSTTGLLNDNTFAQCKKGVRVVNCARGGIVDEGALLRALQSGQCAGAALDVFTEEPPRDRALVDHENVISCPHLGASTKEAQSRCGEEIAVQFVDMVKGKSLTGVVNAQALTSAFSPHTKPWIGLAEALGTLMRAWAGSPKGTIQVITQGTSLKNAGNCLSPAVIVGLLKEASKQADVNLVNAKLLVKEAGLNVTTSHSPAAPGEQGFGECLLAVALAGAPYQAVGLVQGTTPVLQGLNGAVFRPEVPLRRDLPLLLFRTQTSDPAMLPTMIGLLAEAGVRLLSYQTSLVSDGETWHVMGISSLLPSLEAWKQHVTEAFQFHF

[4] = target: T2, cysteines in MDA-MB-231 and Ramos cells (Homo sapiens, UniProt Q8NFH5)
T2 sequence (Q8NFH5 1-326): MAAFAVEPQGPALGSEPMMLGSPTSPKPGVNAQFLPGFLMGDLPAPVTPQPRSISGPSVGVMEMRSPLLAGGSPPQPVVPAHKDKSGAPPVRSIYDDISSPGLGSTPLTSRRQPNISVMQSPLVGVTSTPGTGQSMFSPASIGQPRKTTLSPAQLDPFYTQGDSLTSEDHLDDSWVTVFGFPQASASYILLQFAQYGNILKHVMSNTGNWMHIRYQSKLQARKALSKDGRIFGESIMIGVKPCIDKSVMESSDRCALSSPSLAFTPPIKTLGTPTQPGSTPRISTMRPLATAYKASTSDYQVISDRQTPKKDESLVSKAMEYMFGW

[5] = target: cysteines in MDA-MB-231 and Ramos cells (Homo sapiens, UniProt P04818)
[6] = target: T3, cysteines in MDA-MB-231 and Ramos cells (Homo sapiens, UniProt Q9NXV6)
T3 sequence (Q9NXV6 1-580): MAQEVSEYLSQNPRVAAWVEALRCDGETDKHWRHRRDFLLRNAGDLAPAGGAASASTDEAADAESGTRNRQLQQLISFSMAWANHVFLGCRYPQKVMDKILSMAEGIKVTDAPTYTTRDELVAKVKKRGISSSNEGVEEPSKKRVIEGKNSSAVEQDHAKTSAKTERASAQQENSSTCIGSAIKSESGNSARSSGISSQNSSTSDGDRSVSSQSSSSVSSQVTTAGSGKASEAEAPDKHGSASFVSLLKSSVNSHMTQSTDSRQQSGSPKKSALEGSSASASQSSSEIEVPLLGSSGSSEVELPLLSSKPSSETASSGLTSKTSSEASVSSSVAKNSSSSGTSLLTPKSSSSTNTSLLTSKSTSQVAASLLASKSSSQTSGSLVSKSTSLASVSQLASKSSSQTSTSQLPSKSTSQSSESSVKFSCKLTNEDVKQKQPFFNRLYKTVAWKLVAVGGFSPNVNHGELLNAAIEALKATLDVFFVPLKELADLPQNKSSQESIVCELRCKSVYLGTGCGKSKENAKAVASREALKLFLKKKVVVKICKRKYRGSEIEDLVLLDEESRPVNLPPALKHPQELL

[7] = target: cysteines in MDA-MB-231 and Ramos cells (Homo sapiens, UniProt Q96NY7)
[8] = target: cysteines in MDA-MB-231 and Ramos cells (Homo sapiens, UniProt P22061)
[9] = target: cysteines in MDA-MB-231 and Ramos cells (Homo sapiens, UniProt Q9UNI6); settings: for isoTOP-ABPP ratio, cysteine Q9UNI6_C265: 200 μM, insitu, 231
[10] = target: T4, cysteines in MDA-MB-231 and Ramos cells (Homo sapiens, UniProt Q86X76)
T4 sequence (Q86X76 14-327): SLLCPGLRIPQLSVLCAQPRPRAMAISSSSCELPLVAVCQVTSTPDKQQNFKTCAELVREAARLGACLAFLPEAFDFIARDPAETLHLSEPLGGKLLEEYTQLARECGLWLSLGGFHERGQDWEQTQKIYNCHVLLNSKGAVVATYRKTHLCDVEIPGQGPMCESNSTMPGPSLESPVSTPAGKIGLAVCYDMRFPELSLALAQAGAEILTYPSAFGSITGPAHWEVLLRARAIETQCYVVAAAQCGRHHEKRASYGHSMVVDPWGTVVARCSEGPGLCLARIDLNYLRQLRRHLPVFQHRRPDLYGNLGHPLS

[11] = target: T5, cysteines in MDA-MB-231 and Ramos cells (Homo sapiens, UniProt Q8WVV9)
T5 sequence (Q8WVV9 1-542): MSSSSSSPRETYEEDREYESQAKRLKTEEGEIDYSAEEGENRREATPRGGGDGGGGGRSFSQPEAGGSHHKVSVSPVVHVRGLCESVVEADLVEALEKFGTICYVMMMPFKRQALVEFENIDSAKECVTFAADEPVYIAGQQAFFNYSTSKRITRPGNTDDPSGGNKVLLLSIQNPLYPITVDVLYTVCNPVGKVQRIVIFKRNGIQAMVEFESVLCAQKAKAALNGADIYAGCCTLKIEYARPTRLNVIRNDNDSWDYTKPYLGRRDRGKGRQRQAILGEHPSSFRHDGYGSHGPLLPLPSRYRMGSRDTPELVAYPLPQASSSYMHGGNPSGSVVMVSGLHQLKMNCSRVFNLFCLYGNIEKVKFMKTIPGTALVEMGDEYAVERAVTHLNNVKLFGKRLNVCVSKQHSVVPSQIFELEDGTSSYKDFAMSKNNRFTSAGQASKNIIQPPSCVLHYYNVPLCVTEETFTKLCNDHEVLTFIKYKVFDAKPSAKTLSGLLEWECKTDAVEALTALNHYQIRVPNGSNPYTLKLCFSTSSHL

Chain of cysteines in MDA-MB-231 and Ramos cells (Homo sapiens, UniProt Q9BRJ7) (Q9BRJ7 whole entry): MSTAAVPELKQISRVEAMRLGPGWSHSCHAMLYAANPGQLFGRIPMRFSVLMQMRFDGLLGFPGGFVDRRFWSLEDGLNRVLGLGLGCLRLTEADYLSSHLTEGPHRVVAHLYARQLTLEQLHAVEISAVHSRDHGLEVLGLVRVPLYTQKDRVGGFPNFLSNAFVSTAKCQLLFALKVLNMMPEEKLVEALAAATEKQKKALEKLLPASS
Chain of cysteines in MDA-MB-231 and Ramos cells (Homo sapiens, UniProt P04818) (P04818 whole entry): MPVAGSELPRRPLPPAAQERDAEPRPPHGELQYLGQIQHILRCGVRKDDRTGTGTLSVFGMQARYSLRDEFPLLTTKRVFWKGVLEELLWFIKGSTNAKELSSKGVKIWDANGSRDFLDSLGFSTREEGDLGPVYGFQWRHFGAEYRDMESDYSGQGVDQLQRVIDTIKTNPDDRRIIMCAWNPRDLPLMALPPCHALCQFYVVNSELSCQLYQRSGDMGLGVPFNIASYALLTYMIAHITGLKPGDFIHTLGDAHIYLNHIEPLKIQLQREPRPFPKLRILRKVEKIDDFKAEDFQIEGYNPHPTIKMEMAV
Chain of cysteines in MDA-MB-231 and Ramos cells (Homo sapiens, UniProt Q9UNI6) (Q9UNI6 whole entry): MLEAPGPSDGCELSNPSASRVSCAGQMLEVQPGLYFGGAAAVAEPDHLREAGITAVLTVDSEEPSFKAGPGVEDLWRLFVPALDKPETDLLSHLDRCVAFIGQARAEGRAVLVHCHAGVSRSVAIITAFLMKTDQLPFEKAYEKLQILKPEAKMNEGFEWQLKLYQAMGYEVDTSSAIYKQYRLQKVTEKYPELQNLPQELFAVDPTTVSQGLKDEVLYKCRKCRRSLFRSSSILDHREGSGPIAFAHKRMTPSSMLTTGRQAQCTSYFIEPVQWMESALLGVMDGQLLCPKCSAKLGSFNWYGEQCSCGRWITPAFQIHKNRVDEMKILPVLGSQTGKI
Chain of cysteines in MDA-MB-231 and Ramos cells (Homo sapiens, UniProt Q96NY7) (Q96NY7 whole entry): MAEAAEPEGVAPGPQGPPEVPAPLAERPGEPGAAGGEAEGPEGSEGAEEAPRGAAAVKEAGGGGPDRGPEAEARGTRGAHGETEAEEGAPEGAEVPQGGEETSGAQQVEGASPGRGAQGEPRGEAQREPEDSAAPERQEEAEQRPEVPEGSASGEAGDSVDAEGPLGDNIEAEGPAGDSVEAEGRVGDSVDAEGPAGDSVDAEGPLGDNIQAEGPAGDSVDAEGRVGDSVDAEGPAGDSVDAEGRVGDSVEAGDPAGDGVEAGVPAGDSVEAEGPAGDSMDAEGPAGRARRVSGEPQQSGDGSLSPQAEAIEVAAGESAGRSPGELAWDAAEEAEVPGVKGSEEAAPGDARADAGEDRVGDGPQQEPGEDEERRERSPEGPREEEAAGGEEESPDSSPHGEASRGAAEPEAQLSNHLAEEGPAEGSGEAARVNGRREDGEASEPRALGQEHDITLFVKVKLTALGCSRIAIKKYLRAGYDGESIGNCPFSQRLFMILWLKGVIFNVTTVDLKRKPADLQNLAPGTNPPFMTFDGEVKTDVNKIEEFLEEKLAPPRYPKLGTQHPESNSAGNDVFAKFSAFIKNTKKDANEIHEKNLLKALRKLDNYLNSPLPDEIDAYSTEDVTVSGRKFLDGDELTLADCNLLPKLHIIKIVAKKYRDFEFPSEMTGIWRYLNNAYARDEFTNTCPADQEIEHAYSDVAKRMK
Chain of cysteines in MDA-MB-231 and Ramos cells (Homo sapiens, UniProt P22061) (P22061 whole entry): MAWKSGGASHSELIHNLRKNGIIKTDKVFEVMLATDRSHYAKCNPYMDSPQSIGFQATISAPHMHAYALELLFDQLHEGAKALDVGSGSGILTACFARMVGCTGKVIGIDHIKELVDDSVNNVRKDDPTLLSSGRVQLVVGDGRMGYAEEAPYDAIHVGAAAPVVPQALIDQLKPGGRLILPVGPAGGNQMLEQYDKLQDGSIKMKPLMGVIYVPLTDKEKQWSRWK

SMILES: COc1ccc2c(c1)CCCN2C(=O)CCl [compound 2]
isoTOP-ABPP reactivity Q9BRJ7_C88 NUDT16L1 ([1]; 200 μM, insitu, 231): 20.0 | isoTOP-ABPP reactivity Q9Y676_C128 MRPS18B ([2]; 200 μM, insitu, 231): 10.2 | isoTOP-ABPP reactivity O43175_C369 PHGDH [3]; 231: 20.0 | isoTOP-ABPP reactivity Q8NFH5_C255 NUP35 ([4]; 200 μM, insitu, 231): 5.1 | isoTOP-ABPP reactivity P04818_C199 TYMS ([5]; 200 μM, insitu, 231): 20.0 | isoTOP-ABPP reactivity Q9NXV6_C516 CDKN2AEP ([6]; 200 μM, insitu, 231): 20.0

SMILES: COc1cc2c(cc1OC)CN(C(=O)CCl)CC2 [compound 8]
isoTOP-ABPP reactivity Q96NY7_C487 CLIC6 ([7]; 200 μM, insitu, 231): 5.1 | isoTOP-ABPP reactivity P22061_C102 PCMT1 ([8]; 200 μM, insitu, 231): 4.5 | isoTOP-ABPP reactivity Q9Y676_C128 MRPS18B ([2]; 200 μM, insitu, 231): 1.0

SMILES: Cn1cc(S(=O)(=O)N2CCOCC2)cc1C(=O)NC(=O)CCl [compound 11]
isoTOP-ABPP ratio Q96NY7_C487 ([7]; 100 μM in situ 231): 3.1 | isoTOP-ABPP ratio P22061_C102 ([8]; 100 μM in situ 231): 0.8 | isoTOP-ABPP ratio Q9Y676_C128 ([2]; 100 μM in situ 231): 0.8 | isoTOP-ABPP ratio, cysteine Q8WVV9_C464 ([11]; 100 μM in situ 231): 0.9 | isoTOP-ABPP ratio Q8NFH5_C255 ([4]; 100 μM in situ 231): 1.3 | isoTOP-ABPP ratio, cysteine Q86X76_C203 ([10]; 100 μM in situ 231): 0.8 | isoTOP-ABPP ratio Q9NXV6_C516 ([6]; 100 μM in situ 231): 1.0

SMILES: O=C(CCl)NC(=O)NC12CC3CC(CC(C3)C1)C2 [compound 12]
isoTOP-ABPP ratio Q96NY7_C487 ([7]; 200 μM, insitu, 231): 20.0 | isoTOP-ABPP ratio P22061_C102 ([8]; 200 μM, insitu, 231): 5.8 | isoTOP-ABPP ratio Q9Y676_C128 ([2]; 200 μM, insitu, 231): 1.4 | isoTOP-ABPP ratio, cysteine Q9UNI6_C265 [9]: 1.2 | isoTOP-ABPP ratio, cysteine Q8WVV9_C464 ([11]; 200 μM, insitu, 231): 20.0 | isoTOP-ABPP ratio Q8NFH5_C255 ([4]; 200 μM, insitu, 231): 12.4 | isoTOP-ABPP ratio, cysteine Q86X76_C203 ([10]; 200 μM, insitu, 231): 3.9 | isoTOP-ABPP ratio Q9NXV6_C516 ([6]; 200 μM, insitu, 231): 3.3

Results, then the compound that gave them:

isoTOP-ABPP reactivity Q96NY7_C487 CLIC6 ([7]; 100 μM in situ 231): 20.0 | isoTOP-ABPP reactivity Q9BRJ7_C88 NUDT16L1 ([1]; 100 μM in situ 231): 20.0 | isoTOP-ABPP reactivity P22061_C102 PCMT1 ([8]; 100 μM in situ 231): 2.8 | isoTOP-ABPP reactivity Q9Y676_C128 MRPS18B ([2]; 100 μM in situ 231): 2.3 | isoTOP-ABPP reactivity Q9UNI6_C265 DUSP12 ([9]; 100 μM in situ 231): 0.8 | isoTOP-ABPP reactivity Q8NFH5_C255 NUP35 ([4]; 100 μM in situ 231): 3.9 | isoTOP-ABPP reactivity P04818_C199 TYMS ([5]; 100 μM in situ 231): 20.0 | isoTOP-ABPP reactivity Q86X76_C203 NIT1 ([10]; 100 μM in situ 231): 0.7
SMILES: COc1ccc(C2CC(c3cccs3)=NN2C(=O)CCl)cc1 (centres unmarked) [compound 4]

isoTOP-ABPP reactivity Q96NY7_C487 CLIC6 ([7]; 200 μM, insitu, 231): 3.6 | isoTOP-ABPP reactivity P22061_C102 PCMT1 ([8]; 200 μM, insitu, 231): 1.2 | isoTOP-ABPP reactivity Q9NXV6_C516 CDKN2AEP ([6]; 200 μM, insitu, 231): 6.6
SMILES: O=C(CCl)N1CCC(Cc2ccccc2)CC1 [compound 9]

isoTOP-ABPP ratio Q96NY7_C487 ([7]; 200 μM, insitu, 231): 3.2 | isoTOP-ABPP ratio, cysteine Q9BRJ7_C88 ([1]; 200 μM, insitu, 231): 20.0 | isoTOP-ABPP ratio P22061_C102 ([8]; 200 μM, insitu, 231): 1.6 | isoTOP-ABPP ratio Q9Y676_C128 ([2]; 200 μM, insitu, 231): 2.9 | isoTOP-ABPP ratio, cysteine Q9UNI6_C265 [9]: 1.2 | isoTOP-ABPP ratio, cysteine O43175_C369 [3]: 2.4 | isoTOP-ABPP ratio Q8NFH5_C255 ([4]; 200 μM, insitu, 231): 3.5 | isoTOP-ABPP ratio, cysteine P04818_C199 ([5]; 200 μM, insitu, 231): 1.5 | isoTOP-ABPP ratio Q9NXV6_C516 ([6]; 200 μM, insitu, 231): 7.7
SMILES: O=C(CCl)N1CCN(S(=O)(=O)c2ccccc2F)CC1 [compound 10]

isoTOP-ABPP ratio Q96NY7_C487 ([7]; 200 μM, insitu, 231): 1.9 | isoTOP-ABPP ratio P22061_C102 ([8]; 200 μM, insitu, 231): 0.9 | isoTOP-ABPP ratio, cysteine O43175_C369 [3]: 2.0 | isoTOP-ABPP ratio Q8NFH5_C255 ([4]; 200 μM, insitu, 231): 1.5 | isoTOP-ABPP ratio Q9NXV6_C516 ([6]; 200 μM, insitu, 231): 2.4 | isoTOP-ABPP ratio Q9NXV6_C516 ([6]; 200 μM, insitu, ramos): 1.6
SMILES: O=C(CCl)NCCc1c[nH]c2ccccc12 [compound 13]

— patent publication US10670605B2, “Cysteine reactive probes and uses thereof” (The Scripps Research Institute, priority 2015, dated 2020)
